Assay results taken from US20140348966A1, “GARCINIA BUCHANANII BAKER COMPOUNDS, COMPOSITIONS AND RELATED METHODS” (priority 2011, published 2014).
Structures can show the parent of a compound that is named as a salt. Where two headings read alike, the source gives them in different places.

Legend:
[1] = hydrogen peroxide scavenging assay; type: biochemical; conditions: isolated and reference compounds; read-out: H2O2 assay EC50
Protocol: Hydrogen peroxide scavenging assay was performed in accordance with the method of Ichikawa, M. and colleagues (2002). Sample solutions at appropriate concentration were prepared using phosphate buffer (100 mM, pH 6.0). Sample solution ([…]), phosphate buffer (30 mL, 100 mM, pH 6.0), and hydrogen peroxide solution (10 mL, 500 mM) were mixed in 96-well clear microplate (VWR, Ismaning, Germany). Then peroxidase (40 mL, 150 U/mL) and ABTS (40 mL, 0.1%) were added. The microplate was incubated at 37° C. for 15 min. The absorbance (A) of each well was measured at 414 nm with FLUOstar OPTIMA (BMG LABTECH, Offenburg, Germany). […] After freeze-drying three times 1 MPLC fractions M1-M8 were analyzed in natural concentrations.
E=[(A−Ablank)control−(A−Ablank)test]/(A−Ablank)control·100

[2] = oxygen radical absorbance capacity (ORAC) assay; type: biochemical; conditions: isolated and reference compounds
Protocol: ORAC assay was carried out according to the method of Ou, G. and colleagues (1993) with some modifications. Trolox and FL were used as a standard and a fluorescent probe respectively. Free radicals were produced by AAPH to oxidize FL. Different dilutions of Trolox ([…]) and appropriate dilutions of tested sample were prepared with phosphate buffer (10 mM, pH 7.4). Trolox dilution ([…]) or sample solution were pipetted into a well of 96-well black microplate (VWR) and then FL (150 mL, 10 nM) was added. The reaction mixture was incubated at 37° C. for 30 min Afterward s, fluorescence was measured every 90 sec at the excitation of 485 nm and the emission of 520 nm using FLUOstar OPTIMA. After 3 cycles, AAPH ([…], 240 mM) was added quickly, and then the measurement was resumed and continued up to 90 min (60 cycles in total). The background signal was determined using the first 3 cycles. The ORAC values were calculated according to the method of Ou, G. and colleagues (1993) and expressed as Trolox equivalent (mmol TE/mmol). After freeze-drying in triplicate, MPLC fractions M1-M8 were analyzed in natural concentrations.

[3] = cited from earlier work
[4] = system: guinea pig gallbladder smooth muscle cells (GBSM); experiment: intracellular microelectrode recording of action potentials, gallbladder smooth muscle; conditions: extract 0.5 g stem bark powder/100 ml; manniflavanone 41.0 mg/100 mL Krebs
Protocol: (§1) Calcium imaging and standard intracellular microelectrode recording were used to determine the effect of G. buchananii extract on the discharge and frequency of Ca^2+ transients, Ca^2+ flashes and Ca^2+ waves. Six fractions (M1-M5 and M7) collected using medium pressure liquid chromatography and manniflavanone, a pure compound from M3 were analyzed for the effect on the resting membrane potential and action potentials in intact GBSM preparations, and slow wave action potentials in CSMC in guinea pig and porcine colon.

[5] = system: guinea pig colon circular smooth muscle cells (CSMC); experiment: intracellular recording of slow wave action potentials, colon circular smooth muscle; conditions: extract 0.5 g stem bark powder/100 ml Krebs; manniflavanone 41.0 mg/100 mL Krebs
Protocol: as §1

[6] = system: guinea pig distal colon; experiment: fecal pellet propulsion motility assay in isolated distal colon (GIMM); conditions: MPLC fractions and their main compounds, serosal application in Krebs
Protocol: Gastrointestinal Motility Assays: Segments (˜10 cm long) of distal colon were pinned on either end in a Sylgard-lined 50 mL organ bath, continuously perfused with oxygenated Krebs solution (rate: 10 mL min^−1) and maintained at temperatures between 36 and 37° C. Tissues were initially allowed to equilibrate for 30 mins in re-circulating Krebs solution. Colonic motility was studied using the Gastronintestinal Motility Monitoring system (GIMM; Med-Associates Inc., Saint Albans, Vt., USA), which included a digital video camera (Catamount Research and Development Inc, St Albans, Vt., USA) to film fecal pellet propulsion. Trials were separated by 5-min recovery periods between successive pellet runs. The GIMM system software calculated velocities by tracking pellets as they traversed colon segments. After initial equilibration, five pellet propulsion trials in vehicle solution were obtained to determine the basal velocity for each tissue preparation. To reduce variations between runs and experiments, the values obtained were used to generate a normalized basal velocity by dividing the values of the 4th-5th runs by the value of the 1st-2nd runs. Garcinia buchananii stem bark extract and test compounds dissolved in 100 mL of Krebs solution were superfused either into the organ bath or into the lumen of the colon using polyethylene tubing [PE 205; outside diameter 9.5 mm (BD-Worldwide, Sparks, Md., USA)]. The effects of extract and test compounds were evaluated by obtaining velocities of four trials taken at 5-min intervals (5-20 min) Normalized velocity data for these treatments were obtained by dividing the test velocities acquired by the average velocity of the five pellet propulsion runs performed in vehicle solution (runs 1-5, above). Normalized data became ratios without units, and were presented as a percent velocity of basal activity for each tissue. Velocities of pellet propulsion were also studied during washout of tissue with Krebs solution (after extract or test compound application) for 20 min
A segment (˜10-12 cm long) of distal colon was pinned on either end in a Sylgard-lined 50 mL organ bath being continuously perfused with oxygenated Krebs solution (rate: 10 mL min^−1) and maintained at temperatures between 36-37° C. Nail-polish-coated guinea-pig pellets similar in shape and size to the “native” colonic fecal pellets were used to determine propulsive velocities using the Gastrointestinal Motility Monitoring system (Med-Associates Inc., Saint Albans, Vt., USA) for filming pellet propulsion as described by Hoffman and others (2010). Velocity was calculated based on the time required for pellets to traverse 5-6 cm of the central colon segment ending 1 cm from the aboral end. Data collection started after 30 minutes of equilibration. A five-minute interval was used to allow equilibration of motor activity between successive pellet runs. Baseline velocities were measured for 20 minutes.
In intraluminal studies, the aqueous extract was prepared by suspending 2 g of G. buchananii bark powder in 100 mL Krebs, whereas 1 g G. buchananii bark powder prepared in the same manner was used for bath (serosal) applications. The extract-Krebs mixture was continuously stirred for 30 minutes and filtered using analytical filter paper (Schleicher and Schuell Blue Ribbon filter paper 589/3; 0.2 μm retention). Garcinia buchananii extract and test compounds were delivered to isolated colons in Krebs solution, and evaluated for effects on pellet propulsion during 20-25 minute time intervals. Intraluminal drug deliveries (350 μL min^−1 Krebs solution) were performed using polyethylene tubing (PE 205; outside diameter 9.5 mm) inserted ˜1.5 cm into the oral end of the segments. In bath deliveries, G. buchananii extract and test compounds were superfused directly into the organ bath. Studies involving PTLC fractions were performed using the organ bath delivery method only.

[7] = system: S-neurons in the myenteric ganglia of guinea pig distal colon; experiment: intracellular recording of evoked fast excitatory postsynaptic potentials (fEPSPs); conditions: naloxone 10 μmol/L; yohimbine 1 μmol/L
Protocol: Intracellular Recording: To study fast excitatory postsynaptic potentials, longitudinal muscle-myenteric plexus preparations of guinea pig colon were pinned and stretched in a 2.5 mL Sylgard-lined recording chamber. […] Myenteric ganglia were visualized at ×200 using Hoffman modulation contrast optics on an inverted microscope (Nikon Diaphot, […]., USA). Individual neurons were randomly impaled using glass microelectrodes, which were filled to the shoulder with 1.0 mol L^-1 KCl and topped off with 2.0 mol L^-1 KCl, generating a range of 50-150 MΩ input resistance. Membrane potential was measured with an Axoclamp-2A amplifier (Axon Instruments, Union City, Calif., USA) and the electrical signals were acquired and analyzed using PowerLab Chart version 5.01 (ADlnstruments, Castle Hills, Australia). Input resistance and resting membrane potential were determined for neurons before and after exposure to G. buchananii extract. Using monopolar extracellular electrodes made from Teflon®-insulated platinum wire, synaptic input to myenteric neurons was elicited by direct single pulse stimuli (0.5 ms duration) applied to interganglionic fiber tracts. […] The amplitude was measured by taking the difference in voltage between the peak of each fEPSP and the membrane holding potential. […]

[8] = Values from Wolfe and Liu (stereochemistry of naringenin and taxifolin not stated)

EC50 [1]	SMILES	ORAC assay [2]	further results
4.1 µM	Oc1cc(O)c2c(c1)O[C@H](c1ccc(O)c(O)c1)[C@H](O)C2 [(−)-epicatechin]	9.65 μmol TE/μmol	ORAC, Literature [3, 8]: 9.14^6 μmol TE/μmol
11 µM	O=C1c2c(cc(O)c([C@@H]3O[C@H](CO)[C@@H](O)[C@H](O)[C@H]3O)c2O)O[C@H](c2ccc(O)c(O)c2)[C@H]1O [Compound 1, (2R,3R)-Taxifolin-6-C-β-D-glucopyranoside]	9.57 μmol TE/μmol	–
10.9 µM	O=C1c2c(cc(O)c([C@@H]3OC(CO)[C@@H](O)[C@H](O)C3O)c2O)O[C@H](c2ccc(O)cc2)[C@H]1O (stereo partly drawn) [Compound 2, (2R,3R)-Aromadendrin-6-C-β-D-glucopyranoside]	4.23 μmol TE/μmol	–
2.8 µM	O=C1c2c(O)cc(O)c([C@@H]3C(=O)c4c(O)cc(O)cc4O[C@H]3c3ccc(O)c(O)c3)c2O[C@H](c2ccc(O)c(O)c2)[C@H]1O [Compound 3, (2R,3S,2″R,3″R)-manniflavanone]	13.73 μmol TE/μmol	action potentials in GBSM [4]: inhibits action potentials; slow wave action potentials (SW) in CSMC [5]: inhibits spikes of SW
2.2 µM	O=C1c2c(O)cc(O)c([C@@H]3C(=O)c4c(O)cc(O)cc4O[C@H]3c3ccc(O)cc3)c2O[C@H](c2ccc(O)c(O)c2)[C@H]1O [Compound 4, (2R,3S,2″R,3″R)-GB-2]	12.10 μmol TE/μmol	effect on pellet propulsion velocity [6]: inhibits guinea pig colon propulsive motility
14.4 µM	O=C1C[C@@H](c2ccc(O)c(O)c2)Oc2c1c(O)cc(O)c2[C@@H]1C(=O)c2c(O)cc(O)cc2O[C@H]1c1ccc(O)c(O)c1 [Compound 5, (2R,3S,2″S)-2-(3,4-dihydroxyphenyl)-2,2′,3,3′-tetrahydro-5,5,7,7-tetrahydroxy-2′-(3,4-dihydroxyphenyl)-[3,8′-Bi-4H-1-benzopyran]-4,4′-dione]	10.50 μmol TE/μmol	effect on pellet propulsion velocity [6]: inhibits guinea pig colon propulsive motility
11.3 µM	O=C1c2c(O)cc(O)cc2O[C@H](c2ccc(O)c(O)c2)[C@H]1O [Compound 6, (+)-(2R,3R)-Taxifolin]	7.63 μmol TE/μmol	–
18.5 µM	O=C1O[C@H]([C@@H](O)CO)C(O)=C1O [ascorbic acid]	0.34 μmol TE/μmol	–
–	C=CCN1CC[C@]23c4c5ccc(O)c4O[C@H]2C(=O)CC[C@@]3(O)[C@H]1C5 [naloxone, naloxone hydrochloride]	–	effect of antagonist alone on fEPSPs [7]: had no effect on fEPSPs
6.1 µM	O=c1c(O)c(-c2ccc(O)c(O)c2)oc2cc(O)cc(O)c12 [quercetin]	5.61 μmol TE/μmol	ORAC, Literature ([3]; Values from Ou et al.): 7.28 μmol TE/μmol; ORAC, Literature [3, 8]: 8.04 μmol TE/μmol
–	COC(=O)[C@@H]1[C@H]2C[C@H]3c4[nH]c5ccccc5c4CCN3C[C@@H]2CC[C@@H]1O [yohimbine, yohimbine hydrochloride]	–	effect of antagonist alone on fEPSPs [7]: had no effect on fEPSPs
